Results on three compounds are retold here after BindingDB's records for doi:10.1016/j.bmcl.2010.10.033 (Glaxosmithkline, 2010).

Test [1] in a line: Antagonist activity at CCR5 in HOS cells assessed as inhibition of HIV-1 Ba-L infection.
Test [2] can be described thus: Antagonist activity at CCR5 in human peripheral blood lymphocytes cells assessed as inhibition of HIV-1 Ba-L infection.

SMILES strings stand for the structures.

Take `C=CCN(C(=O)Cc1ccc(C(F)(F)F)cc1)C1CCN(CCC2(c3cccc(F)c3)CCN(C(=O)c3cc(S(=O)(=O)NC(C)(C)C)c(F)cc3Cl)CC2)CC1` [N-allyl-N-(1-(2-(1-(5-(N-tert-butylsulfamoyl)-2-chloro-4-fluorobenzoyl)-4-(3-fluorophenyl)piperidin-4-yl)ethyl)piperidin-4-yl)-2-(4-(trifluoromethyl)phenyl)acetamide]: the IC50 – broadly, the point on the concentration scale where inhibition reaches its midpoint – worked out at 3.3 nM in test [1] and 53 nM in test [2].
Consider `CCCCN(C(=O)NCc1ccc(C#N)cc1)C1CCN(CCC2(c3cccc(F)c3)CCN(C(=O)c3cc(S(=O)(=O)NC(C)(C)C)c(F)cc3Cl)CC2)CC1` [N-tert-butyl-5-(4-(2-(4-(1-butyl-3-(4-cyanobenzyl)ureido)piperidin-1-yl)ethyl)-4-(3-fluorophenyl)piperidine-1-carbonyl)-4-chloro-2-fluorobenzenesulfonamide], for which the 50% inhibitory concentration (IC50) in test [1] came out at 2.6 nM; in test [2], 11 nM.
Taken in the same sequence, the figures for `C=CCN(C(=O)NCc1ccc(C(=O)OC)cc1)C1CCN(CCC2(c3cccc(F)c3)CCN(C(=O)c3cc(S(=O)(=O)NC(C)(C)C)c(F)cc3Cl)CC2)CC1` [methyl 4-((3-allyl-3-(1-(2-(1-(5-(N-tert-butylsulfamoyl)-2-chloro-4-fluorobenzoyl)-4-(3-fluorophenyl)piperidin-4-yl)ethyl)piperidin-4-yl)ureido)methyl)benzoate] were 26 nM and 146 nM.
